In patent US20250057790A1, “AN INJECTABLE PHARMACEUTICAL COMPOSITION FOR THE TREATMENT OF RESPIRATORY DISEASES IN ANIMALS” (priority 2021, published 2025):

Tests used:
[1] = Injection site reactions in cattle; type: in vivo; conditions: injectable pharmaceutical compositions
Experimental: Cattle injected with injectable pharmaceutical compositions containing Compound (A) were evaluated for reactions at the injection site. These injection site reactions were compared to the injection site reactions of cattle injected with injectable pharmaceutical compositions containing Compounds (B) and (C). The compounds were formulated as aqueous solution injectable pharmaceutical compositions or as suspension injectable pharmaceutical compositions as indicated below. These formulations were prepared as described in Examples 1 and 2. Compound (A) was formulated as both an aqueous solution using the free base form of the compound and as a suspense using the dihydrochloride salt of the compound. The composition of the aqueous solution injectable pharmaceutical composition was 15% w/v of Compound A, 15% w/v Poloxamer […], 6% w/v Benzyl Alcohol, 7% w/v Citric Acid, and QS Water. The composition of the suspension injectable pharmaceutical composition was 15% w/v Compound A (17.5% w/v HCl salt of Compound A), 0.1% w/v Kolliphor HS 15 and QS Miglyol 812. Compound A was administered to the animals in a dose of 10 mg/kilogram of body weight. Compound (B) was formulated as both an aqueous solution using the free base form of the compound and as a suspense using the dihydrochloride salt of the compound. The composition of the aqueous solution injectable pharmaceutical composition was 15% w/v of Compound B, 15% w/v Poloxamer […], 6% w/v Benzyl Alcohol, 7% w/v Citric Acid, and QS Water. The composition of the suspension injectable pharmaceutical composition was 15% w/v Compound B (17.5% w/v HCl salt of Compound B), 0.1% w/v Kolliphor HS 15 and QS Miglyol 812. Compound A was administered to the animals in a dose of 10 mg/kilogram of body weight. Compound (C) was formulated as both an aqueous solution using the free base form of the compound. The composition of the aqueous solution injectable pharmaceutical composition was 10% w/v of Compound C, 15% w/v Poloxamer […], 6% w/v Benzyl Alcohol, 7% w/v Citric Acid, and QS Water. Compound A was administered to the animals in a dose of 10 mg/kilogram of body weight. Injection sites were examined clinically by a trained person, Size of the swelling is measured with a ruler to the closest 0.5 cm horizontally, vertical and depth. These three measured values were multiplied to an estimation of the volume of the square box surrounding the observed swelling.

[2] = Pharmacokinetic analysis in blood plasma of cattle after single SC administration; type: in vivo; conditions: for concentration at 0.25 h / concentration at 0.5 h / concentration at 1 h / concentration at 2 h / concentration at 4 h / concentration at 7 h / concentration at 10 h / concentration at 24 h / concentration at 32 h / concentration at 48 h / concentration at 72 h: bovine, plasma, sc, 10 mg/kg, cattle; for concentration at 0.25 h: 0.25 h after administration; for concentration at 0.5 h: 0.5 h after administration; for concentration at 1 h: 1 h after administration; for concentration at 2 h: 2 h after administration; for concentration at 4 h: 4 h after administration; for concentration at 7 h: 7 h after administration; for concentration at 10 h: 10 h after administration; for concentration at 24 h: 24 h after administration; for concentration at 32 h: 32 h after administration; for concentration at 48 h: 48 h after administration; for concentration at 72 h: 72 h after administration
Experimental: This study determined the bioavailability, the pharmacokinetic profile of Compound A formulations for subcutaneous (SC) injection in the blood plasma of cattle after a single subcutaneous (SC) administration of 10 mg/kg body weight. Concentrations in the blood plasma and bronchial epithelial lining fluid concentrations were determined. Additional tissues were collected post mortem for compound concentration determination.
Compound A was formulated as described in Examples 1 and 2 above. The aqueous solution formulation was Compound A 15% w/v, 15 w/v Kollisolv P124, 6% w/v benzyl alcohol, 7% w/v citric acid, and QS Water, pH 5.2. The oily suspension formulation was Compound A 17.5% w/v, suspended with 0.1% Kolliphor HS, and QS Miglyol812.
Samples were collected into K-EDTA coated Monovettes®. The samples were collected from the Vena jugularis externa. Preferred was the left side of the body, on the opposite side of administration.
The tubes were gently shaken to ensure proper mixing of blood with the anti-coagulant and placed in ice water until centrifugation. K-EDTA-Blood samples were centrifuged at approximately 4° C. and a relative centrifugal force of 2000 for 10 min. Within 2 hours after collection, two aliquots (1, 2) of approximately 0.5 mL blood plasma were pipetted off each sample into labeled plastic (polypropylene) freezer vials.
Pharmacokinetic (PK) parameters (Table 10-2) were calculated using the Phoenix WinNonlin 8.1 software. PK parameters (at least: Cmax, Tmax, AUClast, HL_Lambda_Z, VZ_F, MRTlast, CL_F and F %) to describe the PK profile after SC compound administration.

[3] = both aqueous solution group and oily suspension group, SC 10 mg/kg
[4] = SC 10 mg/kg 15% aqueous solution
[5] = SC 10 mg/kg 17.5% oily suspension

## COCCNCc1ccc(C#Cc2ccc(C(=O)N[C@H](C(=O)NO)C(C)(C)N)cc2)cc1 [Compound A]
[1]
  Injection site reactions, overall assessment: minor injection reactions which were resolved by Day 6
[1]; listed as Compound (A)
  Injection site reactions, overall assessment: tolerated at the injection site
[2]; [3]
  Compound persistence in cattle: around 11 h
  Period of constant plasma plateau levels after treatment: 4 to 10 h
  Time for which compound was detected in bovine plasma, on average: 72 h
[2]; [4]
  concentration at 0.25 h: 1440 ng/mL
  concentration at 0.5 h: 1630 ng/mL
  concentration at 1 h: 1260 ng/mL
  concentration at 2 h: 567 ng/mL
  concentration at 4 h: 363 ng/mL
  concentration at 7 h: 395 ng/mL
  concentration at 10 h: 320 ng/mL
  concentration at 24 h: 47 ng/mL
  concentration at 32 h: 22 ng/mL
  concentration at 48 h: 11.5 ng/mL
  concentration at 72 h: 6.55 ng/mL
[2]; [5]
  concentration at 0.25 h: 1220 ng/mL
  concentration at 0.5 h: 1090 ng/mL
  concentration at 1 h: 571 ng/mL
  concentration at 2 h: 413 ng/mL
  concentration at 4 h: 356 ng/mL
  concentration at 7 h: 433 ng/mL
  concentration at 10 h: 319 ng/mL
  concentration at 24 h: 56.5 ng/mL
  concentration at 32 h: 30.8 ng/mL
  concentration at 48 h: 13.2 ng/mL
  concentration at 72 h: 7.28 ng/mL
